Key:
Details in all cases: incubation time: 72 h
DU-4475 [1] = assay: drug sensitivity score (DSS), CellTiter-Blue viability (DSS (AUC-based score)); higher = stronger viability inhibition; extreme values may be limits of the assay
Procedure: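 DSRT with the CellTiter-Blue (resazurin reduction) viability readout, fluorescence 560/590 nm, 72 h incubation. Plates were normalised to DMSO and benzethonium chloride controls. DSS is computed from the area under the fitted dose-response curve (5 or 9 concentrations).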

CAL-51 = assay: normalised viability (% of control), CellTiter-Blue; higher = more viable cells (about 100 = DMSO control)
Procedure: (§1)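 DSRT, CellTiter-Blue viability, 72 h incubation. Signal is normalised to DMSO and benzethonium chloride controls. Value is the normalised response at dose 3.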

HCC1143 = assay: as above
Procedure: as §1

HDQ-P1 = assay: as above
Procedure: as §1

CAL-85-1 = assay: as above
Procedure: as §1

CAL-148 = assay: as above
Procedure: as §1

MFM-223 = assay: as above
Procedure: as §1

MDA-MB-231 = assay: as above
Procedure: as §1

BT-549 = assay: as above
Procedure: as §1

MDA-MB-436 = assay: as above
Procedure: as §1

BT-474 = assay: as above
Procedure: as §1

DU-4475 [2] = assay: as above
Procedure: as §1

Hs578T = assay: as above
Procedure: as §1

MDA-MB-453 = assay: as above
Procedure: as §1

HCC1937 = assay: as above
Procedure: as §1

MDA-MB-468 = assay: as above
Procedure: as §1

HCC1599 = assay: as above
Procedure: as §1

SK-BR-3 = assay: as above
Procedure: as §1

CAL-120 = assay: as above
Procedure: as §1

| SMILES | drug sensitivity score (DU-4475 [1]) | normalised viability (CAL-51; 10 nM) [%] | normalised viability (HCC1143; 100 nM) [%] | normalised viability (HDQ-P1; 10 nM) [%] | normalised viability (CAL-85-1; 10 nM) [%] | normalised viability (CAL-148; 10 nM) [%] | normalised viability (MFM-223; 100 nM) [%] | normalised viability (MDA-MB-231; 100 nM) [%] | normalised viability (BT-549; 100 nM) [%] | normalised viability (MDA-MB-436; 100 nM) [%] | normalised viability (BT-474; 100 nM) [%] | normalised viability (DU-4475 [2]; 10 nM) [%] | normalised viability (Hs578T; 100 nM) [%] | normalised viability (MDA-MB-453; 10 nM) [%] | normalised viability (HCC1937; 100 nM) [%] | normalised viability (MDA-MB-468; 100 nM) [%] | normalised viability (HCC1599; 100 nM) [%] | normalised viability (SK-BR-3; 100 nM) [%] | normalised viability (CAL-120; 100 nM) [%] | normalised viability (CAL-51; 1 nM) [%] | normalised viability (HCC1143; 10 nM) [%] | normalised viability (HDQ-P1; 1 nM) [%] | normalised viability (CAL-85-1; 1 nM) [%] | normalised viability (CAL-148; 1 nM) [%] | normalised viability (MFM-223; 10 nM) [%] | normalised viability (MDA-MB-231; 10 nM) [%] | normalised viability (BT-549; 10 nM) [%] | normalised viability (MDA-MB-436; 10 nM) [%] | normalised viability (BT-474; 10 nM) [%] | normalised viability (DU-4475 [2]; 1 nM) [%] | normalised viability (Hs578T; 10 nM) [%] | normalised viability (MDA-MB-453; 1 nM) [%] | normalised viability (HCC1937; 10 nM) [%] | normalised viability (MDA-MB-468; 10 nM) [%] | normalised viability (HCC1599; 10 nM) [%] | normalised viability (SK-BR-3; 10 nM) [%] | normalised viability (CAL-120; 10 nM) [%] |
| --- | --- | --- | --- | --- | --- | --- | --- | --- | --- | --- | --- | --- | --- | --- | --- | --- | --- | --- | --- | --- | --- | --- | --- | --- | --- | --- | --- | --- | --- | --- | --- | --- | --- | --- | --- | --- | --- |
| COc1cc(Nc2ncc(F)c(Nc3ccc4c(n3)NC(=O)C(C)(C)O4)n2)cc(OC)c1OC [R406] | 0 | 107 | 84.4 | 107 | 90.2 | 91.2 | 96.4 | 102 | 105 | 96.1 | 116 | 122 | 112 | 106 | 125 | 92.3 | 102 | 95.7 | 90.8 |  |  |  |  |  |  |  |  |  |  |  |  |  |  |  |  |  |  |
| O=C(c1ccc(OCCN2CCCCC2)cc1)c1c(-c2ccc(O)cc2)sc2cc(O)ccc12 [Raloxifene] | 0 | 99.6 | 109 | 90.2 | 101 | 100 | 84.3 | 89.3 | 87.2 | 107 | 107 | 105 | 104 | 107 | 110 | 105 | 104 | 115 | 102 |  |  |  |  |  |  |  |  |  |  |  |  |  |  |  |  |  |  |
| Cn1c(=O)c(F)c(Nc2ccc(I)cc2F)c2c(=O)n(C[C@@H](O)CO)cnc21 [TAK-733] | 29.3 |  |  |  |  |  |  |  |  |  |  |  |  |  |  |  |  |  |  | 103 | 77 | 118 | 107 | 92.6 | 80.3 | 54.9 | 97.4 | 100 | 123 | 98 | 86.8 | 123 | 100 | 91.5 | 86.2 | 99.4 | 92.7 |
| CCS(=O)(=O)c1cccc(-c2cc(C(=O)NC3CCN(C)CC3)c(C)c3[nH]c4ncc(C)cc4c23)c1 [TAK-901] | 3.52 |  |  |  |  |  |  |  |  |  |  |  |  |  |  |  |  |  |  | 91.7 | 87.6 | 114 | 98 | 113 | 81.8 | 103 | 114 | 101 | 113 | 97 | 131 | 99.1 | 120 | 105 | 103 | 97.3 | 86.8 |
| c1ccc(C2CN3CCSC3=N2)cc1 (centres undefined) [Tetramisole] | 0 | 95.2 | 116 | 122 | 103 | 114 | 92.3 | 101 | 83 | 108 | 109 | 87.6 | 97.5 | 98.1 | 108 | 98.8 | 107 | 104 | 120 |  |  |  |  |  |  |  |  |  |  |  |  |  |  |  |  |  |  |
| CCCC(CCC)C(=O)O [Valproic acid] | 0 | 97.8 | 94.9 | 139 | 95.7 | 106 | 94.9 | 110 | 92 | 95.4 | 113 | 93.7 | 111 | 94.4 | 98.8 | 115 | 102 | 95 | 110 |  |  |  |  |  |  |  |  |  |  |  |  |  |  |  |  |  |  |
